Tests used:
Type in all cases: cell-based
Moraxella catarrhalis = assay: MIC against Gram-negative bacteria: Moraxella catarrhalis; settings: for MIC: M. catarrhalis
Summary of the method: (§1)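 Broth microdilution, LB medium, final inoculum 5×10^5 CFU/mL from McFarland 0.5 cultures. Recombinant human EGF domain proteins tested in two-fold steps, n=3. MIC: lowest concentration, no growth.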

Proteus mirabilis = assay: MIC against Gram-negative bacteria: Proteus mirabilis; settings: for MIC: P. mirabilis
Summary of the method: as §1

Proteus vulgaris = assay: MIC against Gram-negative bacteria: Proteus vulgaris; settings: for MIC: P. vulgaris
Summary of the method: as §1

Serratia marcescens = assay: MIC against Gram-negative bacteria: Serratia marcescens; settings: for MIC: S. marcescens
Summary of the method: as §1

E. coli BL21 = assay: MIC against Gram-negative bacteria: E. coli BL21; settings: E. coli BL21
Summary of the method: as §1

E. coli DH5α = assay: Antibacterial activity: MIC and growth curve against E. coli DH5α in 96-well plate; settings: minimal inhibitory concentration against E. coli DH5α; 96-well plate, 5×10^5 CFU/mL, 37° C., judged after 8 h
Summary of the method: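 Log-phase bacteria (OD600 ~0.5) resuspended in LB at 5×10^5 CFU/mL, exposed to recombinant protein at 50, 25, 12.5 μg/mL final in triplicate, 37 °C shaking at 175 rpm. OD600 read every 30 min; MIC is lowest concentration showing no growth.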

Klebsiella pneumonia = assay: MIC against Gram-negative bacteria: Klebsiella pneumonia; settings: for MIC: K. pneumonia
Summary of the method: as §1

Enterobacter cloacae = assay: MIC against Gram-negative bacteria: Enterobacter cloacae; settings: for MIC: E. cloacae
Summary of the method: as §1

Aeromonas hydrophila = assay: MIC against Gram-negative bacteria: Aeromonas hydrophila; settings: for MIC: A. hydrophila
Summary of the method: as §1

Citrobacter diversus = assay: MIC against Gram-negative bacteria: Citrobacter diversus; settings: for MIC: C. diversus
Summary of the method: as §1

Pseudomonas aeruginosa = assay: MIC against Gram-negative bacteria: Pseudomonas aeruginosa; settings: for MIC: P. aeruginosa
Summary of the method: as §1

[1] = 10 h cultivation at 37° C., 5×10^5 CFU/mL
[2] = Moraxella catarrhalis, 96-well plate, 5×10^5 CFU/mL, 37° C., 10 h
[3] = Proteus mirabilis, 96-well plate, 5×10^5 CFU/mL, 37° C., 10 h
[4] = Proteus vulgaris, 96-well plate, 5×10^5 CFU/mL, 37° C., 10 h
[5] = Serratia marcescens, 96-well plate, 5×10^5 CFU/mL, 37° C., 10 h
[6] = 96-well plate, 5×10^5 CFU/mL, 37° C., 10 h
[7] = Klebsiella pneumonia, 96-well plate, 5×10^5 CFU/mL, 37° C., 10 h
[8] = Enterobacter cloacae, 96-well plate, 5×10^5 CFU/mL, 37° C., 10 h
[9] = Aeromonas hydrophila, 96-well plate, 5×10^5 CFU/mL, 37° C., 10 h
[10] = Citrobacter diversus, 96-well plate, 5×10^5 CFU/mL, 37° C., 10 h
[11] = Pseudomonas aeruginosa, 96-well plate, 5×10^5 CFU/mL, 37° C., 10 h

PRT428 (DVNECWASPGRLCQHTCENTLGSYRCSCASGFLLAADGKRCE; listed as Homo sapiens)
50 µg/mL: MIC (Moraxella catarrhalis; [1]) | MIC (Proteus vulgaris; [1]) | MIC (E. coli DH5α) | MIC (Enterobacter cloacae; [1])
12.5 µg/mL: MIC (Proteus mirabilis; [1]) | MIC (Serratia marcescens; [1]) | MIC (Citrobacter diversus; [1]) | MIC (Pseudomonas aeruginosa; [1])
25 µg/mL: MIC (E. coli BL21; [1]) | MIC (Klebsiella pneumonia; [1]) | MIC (Aeromonas hydrophila; [1])

PRT944 (TSHPCFVSRPCLNGGTCHMLSRDTYECTCQVGFTGKECQ; listed as Homo sapiens)
12.5 µg/mL: MIC (Moraxella catarrhalis; 10 h cultivation at 37° C.) | MIC (Serratia marcescens; 10 h cultivation at 37° C.) | MIC (E. coli DH5α) | MIC (Aeromonas hydrophila; 10 h cultivation at 37° C.)
50 µg/mL: MIC (Proteus vulgaris; 10 h cultivation at 37° C.) | MIC (Enterobacter cloacae; 10 h cultivation at 37° C.) | MIC (Citrobacter diversus; 10 h cultivation at 37° C.) | MIC (Pseudomonas aeruginosa; 10 h cultivation at 37° C.)
25 µg/mL: MIC (Proteus mirabilis; 10 h cultivation at 37° C.) | MIC (E. coli BL21; 10 h cultivation at 37° C.)
100 µg/mL: MIC (Klebsiella pneumonia; 10 h cultivation at 37° C.)

PRT1270 (DVDECSLDRTCDHSCINHPGTFACACNRGYTLYGFTHCG; listed as Homo sapiens)
25 µg/mL: MIC against M. catarrhalis (Moraxella catarrhalis; [2]) | MIC against P. vulgaris (Proteus vulgaris; [4]) | MIC against A. hydrophila (Aeromonas hydrophila; [9])
12.5 µg/mL: MIC against S. marcescens (Serratia marcescens; [5]) | MIC against E. coli BL21 (E. coli BL21; [6]) | MIC against K. pneumonia (Klebsiella pneumonia; [7]) | MIC against C. diversus (Citrobacter diversus; [10])
50 µg/mL: MIC against P. mirabilis (Proteus mirabilis; [3]) | MIC (E. coli DH5α) | MIC against E. cloacae (Enterobacter cloacae; [8]) | MIC against P. aeruginosa (Pseudomonas aeruginosa; [11])

PRT1390 (EEDCLDPMCSNHGICVKGECHCSTGWGGVNCET; listed as Homo sapiens)
50 µg/mL: MIC against M. catarrhalis (Moraxella catarrhalis; Moraxella catarrhalis, 5×10^5 CFU/mL, 10 h cultivation at 37° C.) | MIC against P. vulgaris (Proteus vulgaris; Proteus vulgaris, 5×10^5 CFU/mL, 10 h cultivation at 37° C.) | MIC against S. marcescens (Serratia marcescens; Serratia marcescens, 5×10^5 CFU/mL, 10 h cultivation at 37° C.) | MIC against K. pneumonia (Klebsiella pneumonia; Klebsiella pneumonia, 5×10^5 CFU/mL, 10 h cultivation at 37° C.) | MIC against A. hydrophila (Aeromonas hydrophila; Aeromonas hydrophila, 5×10^5 CFU/mL, 10 h cultivation at 37° C.)
12.5 µg/mL: MIC against E. coli BL21 (E. coli BL21; 5×10^5 CFU/mL, 10 h cultivation at 37° C.) | MIC (E. coli DH5α) | MIC against E. cloacae (Enterobacter cloacae; Enterobacter cloacae, 5×10^5 CFU/mL, 10 h cultivation at 37° C.) | MIC against P. aeruginosa (Pseudomonas aeruginosa; Pseudomonas aeruginosa, 5×10^5 CFU/mL, 10 h cultivation at 37° C.)
25 µg/mL: MIC against P. mirabilis (Proteus mirabilis; Proteus mirabilis, 5×10^5 CFU/mL, 10 h cultivation at 37° C.) | MIC against C. diversus (Citrobacter diversus; Citrobacter diversus, 5×10^5 CFU/mL, 10 h cultivation at 37° C.)

PRT27 (NACASGPCPPHADCRDLWQTFSCTCQPGYYGPGCV; listed as Homo sapiens)
12.5 µg/mL: MIC (μg/mL) M. catarrhalis (Moraxella catarrhalis; [2]) | MIC (E. coli DH5α) | MIC (μg/mL) E. cloacae (Enterobacter cloacae; [8])
25 µg/mL: MIC (μg/mL) P. mirabilis (Proteus mirabilis; [3]) | MIC (μg/mL) E. coli BL21 (E. coli BL21; [6]) | MIC (μg/mL) K. pneumonia (Klebsiella pneumonia; [7]) | MIC (μg/mL) A. hydrophila (Aeromonas hydrophila; [9])
50 µg/mL: MIC (μg/mL) P. vulgaris (Proteus vulgaris; [4]) | MIC (μg/mL) C. diversus (Citrobacter diversus; [10]) | MIC (μg/mL) P. aeruginosa (Pseudomonas aeruginosa; [11])
100 µg/mL: MIC (μg/mL) S. marcescens (Serratia marcescens; [5])

PRT975 (LVDWCSRQPCQNGGRCVQTGAYCLCPPGWSGRLCD; listed as Homo sapiens)
50 µg/mL: MIC (Proteus mirabilis; 10 h cultivation at 37° C.) | MIC (Aeromonas hydrophila; 10 h cultivation at 37° C.) | MIC (Pseudomonas aeruginosa; 10 h cultivation at 37° C.)
25 µg/mL: MIC (Serratia marcescens; 10 h cultivation at 37° C.) | MIC (E. coli DH5α) | MIC (Enterobacter cloacae; 10 h cultivation at 37° C.)
12.5 µg/mL: MIC (Moraxella catarrhalis; 10 h cultivation at 37° C.) | MIC (Proteus vulgaris; 10 h cultivation at 37° C.) | MIC (E. coli BL21; 10 h cultivation at 37° C.) | MIC (Klebsiella pneumonia; 10 h cultivation at 37° C.) | MIC (Citrobacter diversus; 10 h cultivation at 37° C.)

Source: patent US9833497B2, “Human originated EGF domain proteins and use of the same” (CHENGDU SOURCEBIO LIMITED-LIABILITY COMPANY, priority 2013, dated 2017)
